Assay results: US8691761B2, “Somatostatin receptor 2 antagonists” (priority 2006, dated 2014)
Where two headings read alike, the source gives them in different places. Bridge positions count the residues as written; N and C are the ends. Square brackets hold non-standard residues; d marks the D form. Peptide text beside a SMILES is read from it. dPhe(4-NHCONH2) = NC(=O)Nc1ccc(C[C@@H](N)C(=O)O)cc1; Phe(4-NHCONH2) = NC(=O)Nc1ccc(C[C@H](N)C(=O)O)cc1; Trp(5-F) = N[C@@H](Cc1c[nH]c2ccc(F)cc12)C(=O)O; Phe(4-Cl) = N[C@@H](Cc1ccc(Cl)cc1)C(=O)O; 2Nal = N[C@@H](Cc1ccc2ccccc2c1)C(=O)O

What was measured:
Assay in all cases: Receptor autoradiography, displacement of 125I-[Leu8,D-Trp22,Tyr25]-SRIF-28 from membrane pellet sections
Type in all cases: binding
[1] = target: T1, hSSTR3 (Homo sapiens, UniProt P32745); conditions: Table 3; mean ± SEM when N ≧ 3; read-out: sst3 binding affinity (IC50)
T1 construct: expressed in transfected cells; host or cells: CHO-K1 or CCL39 cells
T1 sequence (P32745 whole entry): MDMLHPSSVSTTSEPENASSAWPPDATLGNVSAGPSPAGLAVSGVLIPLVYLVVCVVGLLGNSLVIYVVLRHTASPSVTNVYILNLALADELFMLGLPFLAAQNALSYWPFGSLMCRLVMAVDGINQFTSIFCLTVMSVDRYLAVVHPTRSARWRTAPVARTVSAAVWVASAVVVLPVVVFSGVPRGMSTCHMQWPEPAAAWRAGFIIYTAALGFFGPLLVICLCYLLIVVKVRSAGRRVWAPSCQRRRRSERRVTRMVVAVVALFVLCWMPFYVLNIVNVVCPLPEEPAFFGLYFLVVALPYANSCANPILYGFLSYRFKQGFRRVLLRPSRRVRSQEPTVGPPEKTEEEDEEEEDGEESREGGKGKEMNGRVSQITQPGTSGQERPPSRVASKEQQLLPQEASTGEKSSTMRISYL
Method: (§1) Generally, recombinant cells expressing the receptor are washed and homogenized to prepare a crude protein homogenate in a suitable buffer. In a typical assay, an amount of protein from the cell homogenate is placed into a small volume of an appropriate assay buffer at an appropriate pH. Candidate substances, such as potential SRIF agonists and antagonists, are added to the admixture in convenient concentrations, and the interaction between the candidate substance and the receptor polypeptide is monitored.
(§2) In vitro Bioassay: The effects of the various somatostatin analogs were tested in vitro for their ability to bind to isolated cloned receptors expressed on CHO-K1 cells and CCL39 cells. The molecular cloning of the genes encoding multiple somatostatin receptor subtypes permitted the individual expression of these receptors in mammalian cells and the characterization of their respective pharmacological profiles.
(§3) CHO-K1 cells were grown in Ham's F-12 medium, and CCL39 cells were grown in Dulbecco's modified Eagle's medium/Ham's F-12(1:1) mix, supplemented with 10% fetal bovine serum, 100 U/ml penicillin and 100 μg/ml streptomycin, in humidified air containing 5% CO2 at 37° C. Cells were washed twice with and scraped into ice-cold 0.05 M Tris-HCl (pH 7.4), collected by centrifugation, and homogenized using a rotor/stator/system in the same buffer. After centrifugation at 120 g for 5 min at 4° C., the supernatant was collected and centrifuged again at 48,000 g for 30 min at 4° C. The resulting pellet was resuspended in ice-cold Tris buffer, transferred into a microfuge tube, and centrifuged at 20,000 g for 15 min at 4° C. After withdrawal of the supernatant, the membrane pellet was stored at −80° C.
(§4) Receptor autoradiography was performed on 20 μm thick cryostat sections of the membrane pellets, mounted on microscope slides, and then stored at −20° C. […] Increasing concentrations of the unlabeled peptide were used ranging from 0.1-1000 nM. […] IC50 values were calculated after quantification of the data using a computer-assisted image processing system as known in this art.
(§5) The numbers in parentheses indicate the number of times the particular binding test was carried out.
(§6) Receptor autoradiography. Cell membrane pellets were prepared as previously described, and stored at −80° C. Receptor autoradiography was performed on 20-μm thick cryostat (Microm HM 500, Walldorf, Germany) sections of the membrane pellets, mounted on microscope slides, and then stored at −20° C. […] After a brief dip in distilled water to remove excess salts, the sections were dried quickly and exposed for 1 week to Kodak BioMax MR film. IC50 values were calculated after quantification of the data using a computer-assisted image processing system as described previously. […] (Reubi, J. C. “In vitro identification of vasoactive intestinal peptide receptors in human tumors: Implications for tumor imaging.” J. Nucl. Med. 1995, 36, 1846-1853).
(§7) To investigate their ssts binding properties, the peptides were tested for their ability to bind to cryostat sections from membrane pellets of cells expressing the five human ssts (Table 3).

[2] = target: T2, hSSTR5 (Homo sapiens, UniProt P35346); conditions: Table 3; mean ± SEM when N ≧ 3; read-out: sst5 binding affinity (IC50)
T2 construct: expressed in transfected cells; host or cells: CHO-K1 or CCL39 cells
T2 sequence (P35346 whole entry): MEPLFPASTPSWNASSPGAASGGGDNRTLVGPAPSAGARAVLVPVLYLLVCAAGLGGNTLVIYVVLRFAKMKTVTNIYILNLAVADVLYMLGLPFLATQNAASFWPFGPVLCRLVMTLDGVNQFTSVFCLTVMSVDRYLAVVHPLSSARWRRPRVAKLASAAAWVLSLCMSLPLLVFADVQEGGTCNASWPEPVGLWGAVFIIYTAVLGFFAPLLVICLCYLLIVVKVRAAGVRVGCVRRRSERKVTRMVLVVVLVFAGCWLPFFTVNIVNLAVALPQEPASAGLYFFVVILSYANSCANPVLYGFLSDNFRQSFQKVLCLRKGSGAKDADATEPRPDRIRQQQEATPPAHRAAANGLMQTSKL
Method: as §1, §2, §3, §4, §5, §6, §7

[3] = target: T3, hSSTR2 (Homo sapiens, UniProt P30874); conditions: for IC50: Table 3, mean ± SEM when N ≧ 3
T3 construct: expressed in transfected cells; host or cells: CHO-K1 or CCL39 cells
T3 sequence (P30874 whole entry): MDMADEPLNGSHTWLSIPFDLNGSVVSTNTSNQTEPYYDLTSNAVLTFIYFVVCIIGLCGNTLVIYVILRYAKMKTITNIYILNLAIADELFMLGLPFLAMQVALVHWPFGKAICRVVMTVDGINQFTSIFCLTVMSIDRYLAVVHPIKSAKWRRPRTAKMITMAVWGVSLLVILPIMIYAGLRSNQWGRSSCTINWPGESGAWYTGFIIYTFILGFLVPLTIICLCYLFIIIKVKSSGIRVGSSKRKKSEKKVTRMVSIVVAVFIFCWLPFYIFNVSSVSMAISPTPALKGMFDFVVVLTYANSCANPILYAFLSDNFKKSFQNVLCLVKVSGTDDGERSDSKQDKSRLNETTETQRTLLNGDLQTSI
Method: as §1, §2, §3, §4, §5, §6, §7

[4] = target: T4, hSSTR1 (Homo sapiens, UniProt P30872); conditions: Table 3; mean ± SEM when N ≧ 3; read-out: sst1 binding affinity (IC50)
T4 construct: expressed in transfected cells; host or cells: CHO-K1 or CCL39 cells
T4 sequence (P30872 whole entry): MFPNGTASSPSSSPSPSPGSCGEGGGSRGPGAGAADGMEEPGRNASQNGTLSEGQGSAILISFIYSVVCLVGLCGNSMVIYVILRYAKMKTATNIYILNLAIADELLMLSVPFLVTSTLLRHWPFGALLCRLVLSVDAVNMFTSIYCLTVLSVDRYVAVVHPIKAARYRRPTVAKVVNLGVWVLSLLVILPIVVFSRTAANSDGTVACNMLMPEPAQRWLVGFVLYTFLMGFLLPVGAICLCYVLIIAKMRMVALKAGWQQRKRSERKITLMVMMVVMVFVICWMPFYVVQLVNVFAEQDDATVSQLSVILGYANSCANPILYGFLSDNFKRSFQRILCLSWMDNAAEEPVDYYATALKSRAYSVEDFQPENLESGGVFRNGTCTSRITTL
Method: as §1, §2, §3, §4, §5, §6, §7

[5] = target: T5, hSSTR4 (Homo sapiens, UniProt P31391)
T5 construct: expressed in transfected cells; host or cells: CHO-K1 or CCL39 cells
T5 sequence (P31391 whole entry): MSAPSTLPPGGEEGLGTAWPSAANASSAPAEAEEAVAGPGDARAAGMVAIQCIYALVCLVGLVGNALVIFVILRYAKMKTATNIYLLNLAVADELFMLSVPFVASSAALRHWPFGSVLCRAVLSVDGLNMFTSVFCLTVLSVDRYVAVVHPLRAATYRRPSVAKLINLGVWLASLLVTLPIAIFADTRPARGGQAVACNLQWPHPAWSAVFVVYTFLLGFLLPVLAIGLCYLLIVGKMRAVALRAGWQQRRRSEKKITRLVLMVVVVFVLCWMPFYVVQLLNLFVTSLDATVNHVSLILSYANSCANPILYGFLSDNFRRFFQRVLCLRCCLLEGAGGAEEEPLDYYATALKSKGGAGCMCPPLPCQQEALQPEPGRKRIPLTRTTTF
Method: as §1, §2, §3, §4, §5, §6, §7

[6] = read-out: sst2 binding affinity (IC50)
[7] = Table 3, mean ± SEM when N ≧ 3, read-out: sst4 binding affinity (IC50)

In the case of `C[C@@H](O)[C@@H]1NC(=O)[C@H](CCCCN)NC(=O)[C@H](Cc2c[nH]c3ccc(F)cc23)NC(=O)[C@H](Cc2ccc(NC(N)=O)cc2)NC(=O)[C@H](NC(=O)[C@@H](N)Cc2ccc(Cl)cc2)CSSC[C@@H](C(=O)N[C@@H](Cc2ccc3ccccc3c2)C(N)=O)NC1=O` [compound 26, H2N-Cpa-c[DCys-Aph(Cbm)-5F-Trp-Lys-Thr-Cys]-2Nal-NH2] (H-[Phe(4-Cl)][dC][Phe(4-NHCONH2)][Trp(5-F)]KTC[2Nal]-NH2; disulfide 2-7), the IC50 [1] is reported as 90 ± 11 nM, the IC50 [2] is reported as 618 ± 248 nM and the IC50 [3, 6] is reported as 23 ± 3.7 nM. The IC50 [4] was > 1000 nM and the IC50 [5, 7] was 905 ± 132 nM.

In the case of `CC(C)C[C@@H]1NC(=O)[C@H](NC(=O)[C@@H](N)Cc2ccc(Cl)cc2)CSSC[C@@H](C(=O)N[C@@H](Cc2ccc3ccccc3c2)C(N)=O)NC(=O)[C@H]([C@@H](C)O)NC(=O)[C@H](CCCCN)NC(=O)[C@@H](Cc2c[nH]c3ccccc23)NC1=O` [compound 11, H2N-Cpa-c[DCys-Leu-DTrp-Lys-Thr-Cys]-2Nal-NH2] (H-[Phe(4-Cl)][dC]L[dW]KTC[2Nal]-NH2; disulfide 2-7), the IC50 [1] is reported as 340 ± 77 nM, the IC50 [2] is reported as 657 ± 299 nM and the “loss of binding affinity for sst2 as compared to 7” value [3] is reported as 10 fold. For the same compound, the IC50 [3, 6] was 58 ± 21 nM, the IC50 [4] was > 1000 nM and the IC50 [5, 7] was 908 ± 138 nM.

Compound `C[C@@H](O)[C@@H]1NC(=O)[C@H](CCCCN)NC(=O)[C@@H](Cc2c[nH]c3ccccc23)NC(=O)[C@@H](N(C)C(=O)c2ccccc2)NC(=O)[C@H](NC(=O)[C@@H](N)Cc2ccc(Cl)cc2)CSSC[C@@H](C(=O)N[C@@H](Cc2ccc3ccccc3c2)C(N)=O)NC1=O` [compound 10, H2N-Cpa-c[DCys-D-Agl(NMe.benzoyl)-DTrp-Lys-Thr-Cys]-2Nal-NH2] has an IC50 [1] of 102 ± 10 nM, an IC50 [2] of 728 ± 272 nM and an IC50 ([3]; sst2 binding affinity (IC50)) of 158 ± 37 nM. The IC50 [4] was > 1000 nM and the IC50 [5] was 116 ± 47 nM.

Work on `C[C@@H](O)[C@@H]1NC(=O)[C@H](CCCCN)NC(=O)[C@@H](Cc2c[nH]c3ccccc23)NC(=O)[C@H](Cc2ccc(NC(N)=O)cc2)NC(=O)[C@H](NC(=O)[C@@H](N)Cc2ccc(Cl)cc2)CSSC[C@@H](C(=O)N[C@H](Cc2ccc(NC(N)=O)cc2)C(=O)NCC(=O)O)NC1=O` [compound 22, H2N-Cpa-c[DCys-Aph(Cbm)-DTrp-Lys-Thr-Cys]-DAph(Cbm)-GlyOH] (H-[Phe(4-Cl)][dC][Phe(4-NHCONH2)][dW]KTC[dPhe(4-NHCONH2)]G-OH; disulfide 2-7) yielded an IC50 [1] of 661 ± 115 nM, an IC50 [2] of 810 ± 200 nM and an IC50 [3, 6] of 52 ± 4.7 nM. For the same compound, the IC50 [4] was > 1000 nM and the IC50 [5, 7] was > 1000 nM.

`C[C@@H](O)[C@@H]1NC(=O)[C@H](CCCCN)NC(=O)[C@@H](Cc2c[nH]c3ccccc23)NC(=O)[C@H](Cc2ccc(NC(N)=O)cc2)NC(=O)[C@H](NC(=O)[C@@H](N)Cc2ccc(Cl)cc2)CSSC[C@@H](C(=O)N[C@@H](Cc2ccc(NC(N)=O)cc2)C(N)=O)NC1=O` [compound 21, H2N-Cpa-c[DCys-Aph(Cbm)-DTrp-Lys-Thr-Cys]-Aph(Cbm)-NH2] gave an IC50 [1] of 336 ± 46 nM, an IC50 [2] of 560 ± 144 nM and an IC50 [3, 6] of 15 nM. For the same compound, the IC50 [4] was > 1000 nM and the IC50 [5, 7] was 551 ± 151 nM.

`C[C@@H](O)[C@@H]1NC(=O)[C@H](CCCCN)NC(=O)[C@@H](Cc2c[nH]c3ccccc23)NC(=O)[C@H](Cc2ccc(NC(N)=O)cc2)NC(=O)[C@H](NC(=O)[C@@H](N)Cc2ccc(Cl)cc2)CSSC[C@@H](C(=O)N[C@H](Cc2ccc(NC(N)=O)cc2)C(N)=O)NC1=O` [compound 20, H2N-Cpa-c[DCys-Aph(Cbm)-DTrp-Lys-Thr-Cys]-DAph(Cbm)-NH2] showed an IC50 [1] of 328 ± 69 nM, an IC50 [2] of 191 ± 49 nM and an IC50 [3, 6] of 5.4 nM. The IC50 [4] was > 1000 nM and the IC50 [5, 7] was 800 ± 295 nM.
